Assay results reported in patent US5516797A, “Immunosuppressive compounds” (Vertex Pharmaceuticals, Incorporated, priority 1994, dated 1996).

What was measured:
[1] = test system: PBLs stimulated with LB human viral transformed B lymphoblastoid cells; experiment: MLR bioassay LB: inhibition of proliferation in mixed lymphocyte reaction; type: cell-based; conditions: Lymphoblastoid cell, pulsed on day 6, harvested 24 h later
Procedure: (§1) LB and JVMhuman viraltransformed B lymphoblastoid cell lines stimulated t
(§2) proliferate in a mixed lymphocyte reaction (MLR). The compounds are
(§3) evaluated on their ability to inhibit this proliferation.
(§4) Fresh peripheral blood lymphocytes (PBLs) from LeukoPak cells or whole blood from random normal blood donors (tested HIV-negative and hepatitis negative) are isolated and separated by density centrifugation over Histopaque 1077 (Sigma Chemical Co., St. Louis, Mo.). The murine CTLL cytotoxic T cell line and the human Jurkat T cell line are from ATCC (CTLL-2 ATCC TIB214, JURKAT CLONE E6-1 ATCC TIBl52). The human allogeneic B cell lines used for activation of the fresh PBLs are EBV-transformed lymphocytes from normal healthy adult donors with two completely different HLAhaplotypes. All cell lines were routinely tested for the presence of Mycolasma contamination using the GibcoMycotect test kit and are Mycolasma-free. Culture medium consksts of RPMI 1640 (Gibco, Grand Island, N.Y.) containing penicillin (50 U/ml) and streptomycin (50 μg/ml), L-glutamine 2 mM, 2 mercaptoethanol (5×10^-5), 10% heat-inactivated FCS and 10 mM HEPES.
(§5) All chemical stocks were dissolved in DMSO.
(§6) MLR Bioassays ("LB" and "JVM")
(§7) Antigen activated proliferation of PBLs in a primary mixed lymphocyte reaction was assessed in the presence or absence of different concentrations of tested compounds and control drugs. 5×10^4 fresh PBLs were stimulated with 5×10^3 of Mitomycin C treated-allogeneic EBV-transformed β-lymphoglastoid cells, IB and JVM, in a final volume of 200 μl per well in 96-well round-bottomed plates (Mishell, B. B. and S. M. Shiigi, Selected Methods in Cellular Immunology W. H. Freeman and Co., San Francisco, Calif. (1980); Nelson, P. A. et al., Transplantation 50:286 (1990)). Cultures were pulsed on day 6, harvested 24 h later and counted as in previous section.

[2] = test system: human peripheral blood lymphocytes; experiment: Mitogenesis assay PMA: inhibition of proliferation of human PBLs; type: cell-based; conditions: Lymphocyte, PMA (10 ng/ml) plus ionomycin (250 ng/ml), 48 h incubation
Procedure: (§8) PMA and OKT3mitogens used to stimulate proliferation of human peripheral
(§9) blood lymphocytes (PBC). Compounds are evaluated on their ability to
as §4, §5
(§10) Mitogenesis Assays ("PMA" and "OKT3")
(§11) After 48 h incubation (37° C., 5% CO2), cells were pulsed with 1 μCi of ^3 H-thymidine, harvested 24 h later with a Tom Tek cell harvester, and counted in LKB β-scintillation counter.

[3] = test system: PBLs stimulated with JVM human viral transformed B lymphoblastoid cells; experiment: MLR bioassay JVM: inhibition of proliferation in mixed lymphocyte reaction; type: cell-based; conditions: Lymphoblastoid cell, pulsed on day 6, harvested 24 h later
Procedure: as §1, §2, §3, §4, §5, §6, §7

[4] = target: FK-506 binding protein (FKBP) (Homo sapiens, UniProt P62942); experiment: Inhibition of PPIase (rotamase) enzyme activity of FKBP (apparent Ki); type: biochemical; conditions: substrate N-succinylAla-Ala-Pro-Phe-p-nitroanilide, chymotrypsin-coupled
Sequence of FK-506 binding protein (FKBP) (P62942 whole entry): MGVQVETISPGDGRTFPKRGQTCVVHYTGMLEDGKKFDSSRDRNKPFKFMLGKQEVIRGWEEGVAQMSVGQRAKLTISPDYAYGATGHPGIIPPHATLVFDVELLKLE
Excerpt: The inhibition of the PPIase (rotamase) enzyme activity of the FKBP (apparent "Ki" values) can also be measured according to the methods described by either Harding, M. W. et al., Nature 341:758-760 (1989) or Siekierka, J. J. et al., Nature 341:755-757 (1989). The cis-trans isomerization of the proline-alanine peptide bond in a model substrate, N-succinylAla-Ala-Pro-Phe-p-nitroanilide, is monitored spectrophotometrically in a coupled assay with chymotrypsin, which releases 4-nitroanilide from the trans form of the substrate. Fischer, G. et al., Nature 337:476-478 (1989). The inhibitory effect of the addition of different concentrations of inhibitor on the extent of the reaction is determined, and analysis of the change in first order rate constant as a function of inhibitor concentration yields an estimate of the apparent Ki value.

[5] = test system: human peripheral blood lymphocytes; experiment: Mitogenesis assay OKT3: inhibition of proliferation of human PBLs; type: cell-based; conditions: Lymphocyte, OKT3 (10^-4 dilution final), 48 h incubation
Procedure: as §8, §9, §4, §5, §10, §11

Row | Compound | IC50 [1] | IC50 [2] | IC50 [3] | Ki [4] | IC50 [5]
1 | COc1cc(C(=O)C(=O)N2CCCC[C@H]2C(=O)OCCCCCc2ccccc2)cc(OC)c1OC [Compound 70] | > 10 µM | 7 µM | 9 µM | 0.07 µM | 4.5 µM
2 | CCC(C)C(=O)C(=O)N1CCCC[C@H]1C(=O)OCc1ccccc1 (stereo partly drawn) [Compound 67] | > 10 µM | > 10 µM | > 10 µM | 1 µM | > 10 µM
3 | O=C(C(=O)N1CCCC[C@H]1C(=O)Oc1cccc2ccccc12)c1ccccc1 [Compound 5] | > 10 µM | > 10 µM | > 10 µM | 0.9 µM | > 10 µM
4 | C=CC(=O)N1CCCC[C@H]1C(=O)OCc1ccccc1 [Compound 122] | – | – | – | 300 µM | –
5 | O=C(C(=O)N1CCC[C@H]1C(=O)OCc1ccccc1)c1ccccn1 [Compound 43] | – | – | – | 300 µM | –
6 | O=C(OCc1ccccc1)[C@@H]1CCCCN1C(=O)/C=C/c1ccco1 [Compound 118] | – | – | – | 2.5 µM | –
7 | O=C(OCc1ccccc1)[C@@H]1CCCCN1C(=O)/C=C/c1cccnc1 [Compound 121] | – | – | – | 25 µM | –
8 | O=C(C(=O)N1CCCC[C@H]1C(=O)OCCCCc1ccccc1)c1ccccc1 [Compound 64] | > 10 µM | 10 µM | > 10 µM | – | 6 µM
9 | C[C@H](NC(=O)/C=C/c1ccc2c(c1)OCO2)C(=O)OCc1ccccc1 [Compound 132, (S)-3-(3,4-Methylenedioxyphenyl)-prop-2-enoylalanine benzyl ester] | – | – | – | 60 µM | –
10 | CC(C)(C)c1ccc(C(=O)C(=O)N2CCCC[C@H]2C(=O)OCCCCc2ccccc2)cc1 [Compound 97] | > 10 µM | > 10 µM | > 10 µM | 0.6 µM | > 10 µM
11 | O=C(C(=O)N1CCCC[C@H]1C(=O)OCCCCc1ccccc1)c1ccc2c(c1)OCO2 [Compound 100] | > 10 µM | > 10 µM | > 10 µM | 0.25 µM | > 10 µM
12 | O=C(C(=O)N1CCCC[C@H]1C(=O)OCCCc1ccccc1)C1=CCCCC1 [Compound 89] | > 10 µM | 8 µM | > 10 µM | 0.78 µM | > 10 µM
13 | C[C@@H](C(=O)OCc1ccccc1)N(C)C(=O)/C=C/c1ccc2c(c1)OCO2 [Compound 131] | – | – | – | 50 µM | –
14 | COc1cc(C(=O)C(=O)N2CCCC[C@H]2C(=O)OCCCc2c[nH]c3ccccc23)cc(OC)c1OC [Compound 84] | 6 µM | 4.5 µM | > 10 µM | – | 6 µM
15 | C/C(=C\c1ccc(O)cc1)COC(=O)[C@@H]1CCCCN1C(=O)C(=O)c1ccccc1 [Compound 24] | – | – | – | 6 µM | –
16 | O=C(C(=O)N1CCCC[C@H]1C(=O)OCCc1ccccc1)c1ccccc1 [Compound 68] | > 10 µM | > 10 µM | > 10 µM | – | > 10 µM
17 | C=CCOc1cccc(C(=O)C(=O)N2CCCC[C@H]2C(=O)OCc2ccccc2)c1 [Compound 65] | > 10 µM | > 10 µM | > 10 µM | 1 µM | > 10 µM
18 | COc1cc(C(=O)C(=O)N2CCCC[C@H]2C(=O)OCCc2ccc3ccccc3c2)cc(OC)c1OC [Compound 79] | > 10 µM | 10 µM | > 10 µM | 0.22 µM | 2.5 µM
19 | O=C(Cc1ccccc1)C(=O)N1CCCC[C@H]1C(=O)OCCCCc1ccccc1 [Compound 95] | > 10 µM | > 10 µM | > 10 µM | 0.35 µM | > 10 µM
20 | COc1ccc(OC)c(/C=C/C(=O)N2CCC[C@H]2C(=O)OCc2ccccc2)c1 [Compound 113] | – | – | – | 10 µM | –
21 | COC(=O)C(=O)N1CCCC[C@H]1C(=O)OC/C(C)=C/c1ccc(OC)c(OC)c1 [Compound 37] | – | – | – | 10 µM | –

Row | Compound | IC50 [1] | IC50 [2] | IC50 [3] | Ki [4] | IC50 [5]
22 | O=C(OCc1ccccc1)[C@@H]1CCCCN1C(=O)/C=C/c1ccccc1 [Compound 123] | – | – | – | 11 µM | –
23 | COc1cc(C(=O)C(=O)N2CCCC[C@H]2C(=O)OCCCn2cnc3ccccc32)cc(OC)c1OC [Compound 106] | > 10 µM | 7 µM | > 10 µM | 0.11 µM | > 10 µM
24 | COc1cc(C(=O)C(=O)N2CCCC[C@H]2C(=O)OCCCCC2CCCCC2)cc(OC)c1OC [Compound 57] | > 10 µM | 4 µM | 8 µM | – | 4.5 µM
25 | O=C(C(=O)N1CCCC[C@H]1C(=O)OCCCCc1ccccc1)C1CCOCC1 [Compound 101] | > 10 µM | > 10 µM | > 10 µM | 0.44 µM | > 10 µM
26 | COc1cc(C(=O)C(=O)N2CCCC[C@H]2C(=O)OCCCc2ccccc2)cc(OC)c1OC [Compound 83] | 8.5 µM | 5.5 µM | 7.5 µM | 0.11 µM | 5.5 µM
27 | COc1cc(OC)c(OC)cc1/C=C/C(=O)N1CCC[C@H]1C(=O)OCc1ccccc1 [Compound 114] | – | – | – | 25 µM | –
28 | O=C(C(=O)N1CCCC[C@H]1C(=O)OCCCCCCc1ccccc1)c1ccccc1 [Compound 69] | > 10 µM | 6.1 µM | > 10 µM | 0.5 µM | > 10 µM
29 | COc1cc(C(=O)C(=O)N2CCCC[C@H]2C(=O)OCc2ccc(-c3ccccc3)cc2)cc(OC)c1OC [Compound 59] | – | – | – | 2 µM | –
30 | O=C(C(=O)N1CCCC[C@H]1C(=O)OCc1ccccc1)c1ccccc1C(F)(F)F [Compound 55] | – | – | – | 5 µM | –
31 | COC(=O)C(=O)N1CCCC[C@H]1C(=O)OC/C(C)=C/c1ccc(O)cc1 [Compound 38] | – | – | – | 60 µM | –
32 | COc1ccc(C(=O)C(=O)N2CCCC[C@H]2C(=O)OCCCCc2ccccc2)cc1C1CCCCC1 [Compound 102] | 10 µM | > 10 µM | 10 µM | 14 µM | > 10 µM
33 | COc1ccc(/C=C/C(=O)C(=O)N2CCCC[C@H]2C(=O)OCc2ccccc2)cc1 [Compound 45] | > 10 µM | > 10 µM | > 10 µM | 1 µM | > 10 µM
34 | O=C(OCCCc1ccccc1)[C@@H]1CCCCN1C(=O)C(=O)C1(F)CCCCC1 [Compound 91] | > 10 µM | > 10 µM | > 10 µM | 0.54 µM | > 10 µM
35 | COc1cc(C(=O)C(=O)N2CCCC[C@H]2C(=O)OCCCn2cnc3cncnc32)cc(OC)c1OC [Compound 107] | > 10 µM | 6.5 µM | > 10 µM | 0.13 µM | > 10 µM
36 | O=C(CC1CCCCC1)C(=O)N1CCCC[C@H]1C(=O)OCCCCc1ccccc1 [Compound 99] | > 10 µM | > 10 µM | > 10 µM | 0.12 µM | > 10 µM
37 | O=C(OCc1ccccc1)[C@@H]1CCCCN1C(=O)/C=C/c1ccoc1 [Compound 119] | – | – | – | 2.5 µM | –
38 | C=CCOC(=O)[C@@H]1CCCCN1C(=O)C(=O)c1ccccc1 [Compound 4] | – | – | – | 8 µM | –
39 | O=C(C(=O)N1CCCC[C@H]1C(=O)OCCCCC1CCCCC1)c1ccccc1 [Compound 56] | > 10 µM | > 10 µM | 6.5 µM | – | > 10 µM
40 | O=C(C(=O)N1CCCC[C@H]1C(=O)OCc1ccc(-c2ccccc2)cc1)c1ccccc1 [Compound 58] | – | – | – | 5 µM | –
41 | O=C(C(=O)N1CCCC[C@H]1C(=O)OCc1ccccc1)c1ccc(F)c(F)c1 [Compound 44] | – | – | – | 3 µM | –
42 | COc1cc(C(=O)C(=O)N2CCCC[C@H]2C(=O)OCc2cccc(Oc3ccccc3)c2)cc(OC)c1OC [Compound 61] | > 10 µM | 4 µM | > 10 µM | – | 8 µM
